Source: patent US7749976B2, “Isolated PTPMT1 protein which mediates insulin production and uses thereof” (The Regents of the University of California, priority 2005, dated 2010)
Marks after values point to notes of the source that are not given here.

Assays:
PLIP [1] = target: T1, PLIP (Mus musculus, UniProt Q66GT5); assay: Phosphatase activity of various PTPs (malachite green / radiolabeled protein substrates); format: biochemical, murine; settings: for Phosphatase activity, PLIP: mole of phosphate released/min/mol of enzyme, pH 5.5, triplicate, this study
T1 construct: ligating a PCR product encoding full-length PLIP; made in house; host or cells: Escherichia coli BL21 (DE3) CodonPlus RIL
T1 sequence (Q66GT5 32-193): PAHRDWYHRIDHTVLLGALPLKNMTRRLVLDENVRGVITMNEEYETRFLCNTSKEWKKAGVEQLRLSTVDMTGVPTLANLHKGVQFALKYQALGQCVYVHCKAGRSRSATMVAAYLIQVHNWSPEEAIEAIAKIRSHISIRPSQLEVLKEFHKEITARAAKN
Method: Recombinant murine PLIP was expressed as a fusion protein with N-terminal GST and 6-His tags in Escherichia coli BL21 (DE3) CodonPlus RIL cells (Stratagene). The expression construct was assembled by ligating a PCR product encoding full-length PLIP into the 5′-EcoR1 and 3′-Xho1 sites of a modified pET41 vector (pSJ6), kindly provided by Zhaohui Xu (University of Michigan). […] Cultures were then chilled on ice for 20 min, supplied with fresh antibiotics, induced with IPTG to a final concentration of 0.4 mM, and allowed to grow overnight @ 25° C., as previously described (Taylor and Dixon, 2003). All subsequent steps were performed @ 4° C. The cultures were pelleted by spinning @ 6000 rpm for 10 min in a Sorvall GSA rotor, resuspended in 30 ml of buffer (20 mM Imidazole, 50 mM Tris pH 7.4, 300 mM NaCl) with Complete protease inhibitors (Roche), and lysed via French Press. Insoluble material was removed by centrifugation @ 50,000 rpm for 30 min. The fusion protein was purified from the soluble supernatant first over Ni^2+ agarose beads, and then by successive separation on Superdex 75 and 200 gel filtration columns (Amersham). The resulting protein was concentrated, flash frozen in liquid nitrogen, and stored @−80° C. in 25% glycerol, 2 mM EDTA, and 2 mM DTT until use.
(§1) Di-C8 phosphoinosites (Echelon) and Dioleoyl-phosphatidylserine (Sigma) were dried together in a Speed Vac and resuspended via sonication in 18 μl assay buffer (100 mM sodium acetate, 50 mM bis-Tris, 50 mM Tris (pH 5.5), 10 mM DTT) to final concentrations of 50 μM and 500 μM, respectively. After prewarming at 37° C. for 5 min, reactions were initiated by the addition of 20 to 2000 ng of GST-PLIP diluted in assay buffer containing 1.0 mg/ml gelatin. Reactions were quenched after 5-30 min by the addition of 20 μl 0.1 M N-ethylmaleimide, and spun at 18,000×g for 10 min to sediment the lipid aggregates. Twenty-five microliters of the supernatant was added to 50 μl of malachite green reagent and vortexed. Samples were allowed to sit for 40 minutes for color development before measuring absorbance at 620 nm. Inorganic phosphate release was quantitated by comparison to a standard curve of KH2PO4 in dH2O.
(§2) Assays using radiolabeled protein substrates or pNPP were carried in assay buffer containing 50 mM sodium acetate, 25 mM bis-Tris, 25 mM Tris, and 2 mM DTT at pH 5.5 (GST-PLIP), 6.0 (VHR), or 7.0 (TC-PTP), at 30° C. Radiolabeled proteins and pNPP were prepared and assayed as previously reported (Taylor et al., 1997).

PLIP [2] = target: T1, PLIP; assay: Activity of PLIP against water soluble PI(5)P derivatives of varying acyl chain length; format: biochemical, murine; settings: water soluble substrate
TC-PTP = target: T2, TC-PTP (Homo sapiens, UniProt P17706); assay: Phosphatase activity of various PTPs (malachite green / radiolabeled protein substrates); format: biochemical
T2 sequence (P17706 1-415): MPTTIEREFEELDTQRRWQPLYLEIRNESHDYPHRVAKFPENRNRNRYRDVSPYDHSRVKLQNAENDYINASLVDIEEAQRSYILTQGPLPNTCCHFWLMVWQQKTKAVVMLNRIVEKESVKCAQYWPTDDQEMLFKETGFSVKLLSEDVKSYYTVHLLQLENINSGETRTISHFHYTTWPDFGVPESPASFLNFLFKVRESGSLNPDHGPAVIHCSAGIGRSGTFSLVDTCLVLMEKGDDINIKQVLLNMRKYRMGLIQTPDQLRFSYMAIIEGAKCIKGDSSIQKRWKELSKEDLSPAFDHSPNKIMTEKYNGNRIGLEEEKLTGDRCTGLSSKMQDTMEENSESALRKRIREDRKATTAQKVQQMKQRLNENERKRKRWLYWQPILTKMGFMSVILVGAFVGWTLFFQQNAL
Method: as §1, §2
(§3) Due to the only recent emergence of PI(5)P as a known signaling molecule, few PTP's have been tested for activity against this substrate. To ensure that activity against PI(5)P is not a common feature of PTP's, membrane-bound di-C8 PI(5)P was assayed using a known tyrosine-specific PTP (TC-PTP) and a known dual-specific PTP (VHR) (Ishibashi et al., 1992; Zhao et al., 1992; Ruzzene et al., 1993; Zhou et al., 1994; Denu et al., 1995).

VHR = VHR (Homo sapiens, UniProt P51452); assay: as above; format: biochemical
Method: as §1, §2, §3

MTM1 [3] = target: T3, MTM1 (Homo sapiens, UniProt Q13496); assay: Phosphatase activity of various PTPs; format: biochemical
T3 sequence (Q13496 1-603): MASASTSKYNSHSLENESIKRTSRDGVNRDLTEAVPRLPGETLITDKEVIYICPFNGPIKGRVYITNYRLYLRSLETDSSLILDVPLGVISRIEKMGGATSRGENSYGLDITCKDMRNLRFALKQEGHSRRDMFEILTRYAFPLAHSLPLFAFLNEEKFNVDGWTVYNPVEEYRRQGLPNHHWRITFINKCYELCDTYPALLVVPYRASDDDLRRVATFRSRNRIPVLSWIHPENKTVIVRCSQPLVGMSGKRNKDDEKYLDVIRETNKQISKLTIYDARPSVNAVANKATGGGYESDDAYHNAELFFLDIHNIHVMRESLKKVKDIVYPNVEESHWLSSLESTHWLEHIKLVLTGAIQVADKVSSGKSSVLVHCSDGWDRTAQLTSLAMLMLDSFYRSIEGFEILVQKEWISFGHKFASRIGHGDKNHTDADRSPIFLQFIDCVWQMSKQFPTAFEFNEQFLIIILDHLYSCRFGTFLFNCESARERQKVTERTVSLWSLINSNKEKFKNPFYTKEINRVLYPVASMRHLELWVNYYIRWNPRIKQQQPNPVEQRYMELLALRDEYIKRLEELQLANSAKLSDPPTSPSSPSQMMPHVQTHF

PLIP [4] = target: T1, PLIP; assay: Kinetic analysis of PLIP phosphatase activity (saturation kinetics); format: biochemical, murine
Method: as §2
To further explore PLIP's propensity to act as a protein phosphatase, a kinetic analysis of its activity toward the artificial phosphotyrosine analog, para-nitrophenyl phosphate (pNPP), alongside with di-C8 PI(5)P were performed (Taylor et al., 1997). FIG. 3 illustrates the kinetic analysis of PLIP phosphatase activity. Saturation kinetics for PLIP against pNPP (A) and water-soluble di-C8 PI(5)P (B) are shown. V (reaction velocity) is in units of pmol/(min μg).

PTEN = PTEN (Homo sapiens, UniProt P60484); assay: Phosphatase activity of various PTPs; format: biochemical; settings: for Phosphatase activity, PTEN: phosphoinositide substrates, this study
MTM1 [5] = target: T3, MTM1; settings: Ref. 32; cited from earlier work
[6] = mole of phosphate released/min/mol of enzyme, triplicate, this study

Chain of PTEN (P60484 whole entry, species assumed): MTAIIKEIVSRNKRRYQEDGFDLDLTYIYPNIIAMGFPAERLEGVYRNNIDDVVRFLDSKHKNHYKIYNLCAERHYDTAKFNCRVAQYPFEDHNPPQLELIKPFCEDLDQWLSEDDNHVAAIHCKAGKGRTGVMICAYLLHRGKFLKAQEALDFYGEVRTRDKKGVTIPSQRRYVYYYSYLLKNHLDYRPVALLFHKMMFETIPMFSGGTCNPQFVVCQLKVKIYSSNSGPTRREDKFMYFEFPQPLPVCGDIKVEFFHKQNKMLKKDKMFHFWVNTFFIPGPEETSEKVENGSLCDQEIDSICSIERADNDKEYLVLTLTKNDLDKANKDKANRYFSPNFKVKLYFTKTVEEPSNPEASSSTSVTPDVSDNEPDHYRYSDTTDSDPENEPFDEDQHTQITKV
Chain of VHR (P51452 whole entry, species assumed): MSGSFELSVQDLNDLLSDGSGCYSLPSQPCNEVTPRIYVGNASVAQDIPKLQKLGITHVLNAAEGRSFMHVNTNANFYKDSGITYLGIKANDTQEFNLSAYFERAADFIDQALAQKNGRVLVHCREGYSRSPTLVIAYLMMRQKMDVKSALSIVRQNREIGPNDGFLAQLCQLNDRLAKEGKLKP

In the case of `Nc1ncnc2c1ncn2[C@@H]1O[C@H](COP(=O)(O)OP(=O)(O)OP(=O)(O)O)[C@@H](O)[C@H]1O` [ATP], the “ATPase activity of PTPMT1 in vitro” value (PLIP [1]) is reported as “extremely poor”.

For “phosphatidylinositol-5 phosphate [PI (5) P]”, the “Fold increase in PLIP activity versus di-C4 PI(5)P” value (PLIP [2]) was 10 fold, the “TC-PTP activity” value (TC-PTP; membrane-bound di-C8 PI(5)P) was “barely detectable above background” and the “Phosphatase activity, TC-PTP” value (TC-PTP; [6]) was ~0.0^b mol/(min mol). The “VHR activity” value (VHR; membrane-bound di-C8 PI(5)P) was “barely detectable above background”, the “Phosphatase activity, VHR” value (VHR; [6]) was ~0.0^b mol/(min mol) and the “PLIP activity, fold greater than against PI(3,5)P2” value (PLIP [1]; di-C8 PI's in lipid bilayer with phosphatidylserine carrier lipid) was 44 fold. For the same compound, the “Phosphatase activity, PLIP” value (PLIP [1]) was 135^b mol/(min mol), the “MTM1: fold less efficiency than toward preferred substrate” value (MTM1 [3]) was 200 fold and the Km (PLIP [4]; PLIP against water-soluble di-C8 PI(5)P) was 37.5 µM. For the same compound, the “PTEN: fold less efficiency than toward preferred substrate” value (PTEN) was 17 fold, the “Phosphatase activity, PTEN” value (PTEN) was 20.4^b mol/(min mol) and the “Phosphatase activity, MTM1” value (MTM1 [5]) was 22.7^d mol/(min mol).

In the case of casein, the “PLIP activity, fold lower than against PI(5)P” value (PLIP [1]; radiolabeled protein substrates) is reported as “approximately 1000 fold”.

For `O=[N+]([O-])c1ccc(OP(=O)(O)O)cc1` [pNPP, para-nitrophenyl phosphate], the “Km fold higher than Km for di-C8 PI(5)P” value (PLIP [4]) was “more than 150 fold” and the Km (PLIP [4]; PLIP against pNPP) was 5900 µM.

In the case of `CCCCCCCC(=O)OC[C@H](COP(=O)(O)O[C@@H]1[C@H](O)[C@H](OP(=O)(O)O)[C@@H](O)[C@H](O)[C@H]1O)OC(=O)CCCCCCC` [PI (3) P], the “Phosphatase activity, PLIP” value (PLIP [1]) is listed as 1.3^b mol/(min mol), the “Phosphatase activity, PTEN” value (PTEN) is listed as 77.9^b mol/(min mol) and the “Phosphatase activity, MTM1” value (MTM1 [5]) is listed as 4470^d mol/(min mol).

For `CCCCCCCC(=O)OC[C@H](COP(=O)(O)OC1[C@H](O)[C@H](OP(=O)(O)O)C(OP(=O)(O)O)[C@H](OP(=O)(O)O)[C@H]1O)OC(=O)CCCCCCC` (stereo partly drawn) [PI (3, 4, 5) P3], the “Phosphatase activity, PLIP” value (PLIP [1]) was 3.1^b mol/(min mol), the “PTEN fold preference over PI(3,5)P2” value (PTEN; di-C8 PIs in lipid bilayer with phosphatidylserine carrier lipid) was 1.8 fold and the “Phosphatase activity, PTEN” value (PTEN) was 346^b mol/(min mol). The “Phosphatase activity, MTM1” value (MTM1 [5]) was 2.1^d mol/(min mol).

For `CCCC(=O)OCC(COP(=O)(O)OC1C(O)C(O)C(O)C(OP(=O)(O)O)C1O)OC(=O)CCC` (stereo not drawn) [di-C4 PI(5)P], the “Fold increase in PLIP activity versus inositol (1,5)P2” value (PLIP [2]) was 10 fold.
